For data set [1], the system named is nitrotyrosine (NT) in LLC tumor tissue. As to the kind of experiment: Immunofluorescent NT staining of LLC tumor tissue. The data set is classed as in vivo, mouse. As to conditions: LLC tumor-bearing mice treated with RTA408.
The subject of the next data set is B16F10-iNOS cells. As to the kind of experiment: CTL assay of Pmel-1 cells against mixed B16F10-control and B16F10-iNOS cells. It is filed as cell-based, mouse. As to conditions: B16F10-control and B16F10-iNOS mixed 1:1, activated Pmel-1 cells, pre-treated with RTA408.
In data set [2] the test system is H-2K^b associated peptides of EG.7 cells. It is filed as cell-based, mouse.
In another data set the test system is EG.7 cells. As to the kind of experiment: Viability and surface marker expression of treated EG.7 cells. The data set is classed as cell-based, mouse.
In another data set the test system is proteasome. As to the kind of experiment: Proteasomal activity in tumor cell lysates. It is filed as biochemical, mouse.
Data set [3] concerns catalytic subunits of proteasomes. As to the kind of experiment: Amount of catalytic subunits of proteasomes in EG7 tumor cells. The data set is classed as cell-based, mouse. The note with it: EG7 tumor cells treated with PNT or bortezomib.
The next data set concerns EL4 cells. As to the kind of experiment: Empty MHC class I detection by […] loading of EL4 cells. The data set is classed as cell-based, mouse. The note with it: EL4 cells treated with PNT, n=4.
For a further data set, the system named is EL4 tumor cells. As to conditions: pre-treatment of tumor cells with PNT; 5:1 ratio, annexin V/DAPI, 5 and 16 hours.
Data set [4] deals with T1, H-2K^b (Mus musculus, UniProt P01901). As to the kind of experiment: RMA-S binding assay. The note with it: 2.5 mM PNT before peptide loading.
Data set [5] relates to human melanoma UACC903 cell line. As to the kind of experiment: SILAC LC-MS/MS of HLA-A, -B, -C bound peptides after PNT. The note with it: UACC903 cells.
Data set [6] has as its target T1, H-2K^b. As to the kind of experiment: RMA-S dissociation assay. It is filed as binding. The note with it: PNT before loading with peptides.
In a further data set the target is T2, H-2D^b (Mus musculus, UniProt P01899).
T2 sequence (P01899 25-362): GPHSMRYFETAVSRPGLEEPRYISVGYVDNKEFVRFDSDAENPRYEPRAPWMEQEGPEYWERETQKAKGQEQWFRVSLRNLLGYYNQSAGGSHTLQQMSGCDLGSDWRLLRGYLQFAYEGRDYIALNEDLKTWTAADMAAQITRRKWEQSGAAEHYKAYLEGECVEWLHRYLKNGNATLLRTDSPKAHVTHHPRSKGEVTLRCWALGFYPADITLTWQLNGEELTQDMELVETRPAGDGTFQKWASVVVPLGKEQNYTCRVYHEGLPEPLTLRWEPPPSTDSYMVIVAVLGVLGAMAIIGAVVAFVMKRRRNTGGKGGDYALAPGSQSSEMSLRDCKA
T2 sequence (P01887 21-119 partner): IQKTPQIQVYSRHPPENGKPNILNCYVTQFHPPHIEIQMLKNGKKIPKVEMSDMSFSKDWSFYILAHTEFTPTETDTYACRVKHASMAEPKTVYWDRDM
As to the kind of experiment: RMA-S dissociation assay, H-2D^b. It is filed as binding.

T1 sequence (P01901 whole entry, looked up): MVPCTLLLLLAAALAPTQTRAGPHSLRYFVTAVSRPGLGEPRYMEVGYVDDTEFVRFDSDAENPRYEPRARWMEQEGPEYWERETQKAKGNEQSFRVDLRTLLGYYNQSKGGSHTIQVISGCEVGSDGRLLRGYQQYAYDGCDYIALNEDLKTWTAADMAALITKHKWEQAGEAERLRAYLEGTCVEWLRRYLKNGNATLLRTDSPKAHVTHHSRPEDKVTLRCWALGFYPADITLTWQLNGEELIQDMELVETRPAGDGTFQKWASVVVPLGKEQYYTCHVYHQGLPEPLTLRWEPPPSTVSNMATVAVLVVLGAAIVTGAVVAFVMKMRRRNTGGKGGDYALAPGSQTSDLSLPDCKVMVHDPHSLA

Turning to `CC1(C)CC[C@]2(NC(=O)C(C)(F)F)CC[C@]3(C)[C@H](C(=O)C=C4[C@@]5(C)C=C(C#N)C(=O)C(C)(C)[C@@H]5CC[C@]43C)[C@@H]2C1` [RTA408, Omaveloxolone], the “NT staining in tumor tissues” value in data set [1] is on record as “reduced NT staining”. Besides, the “resistance of B16F10-iNOS cells to killing by CTLs” value with B16F10-iNOS cells is given as “completely abrogated resistance”.
For the compound `CC(C)C[C@H](NC(=O)[C@H](Cc1ccccc1)NC(=O)c1cnccn1)B(O)O` [bortezomib], in data set [2] (EG.7 cells, 15 nM bortezomib), the “representation of MHCI peptides vs non-treated cells” value is “substantial decrease”. Further, in the data set on EG.7 cells (15 nM bortezomib), the “expression of MHC class I (H2K^b)” value is on record as “did not affect” and the “viability of tumor cells” value was “did not affect”. Further, the proteasomal activity entry with proteasome (EG.7 cells, 15 nM bortezomib, N=5) is recorded as “modest inhibition”. Moreover, the “amount of 6 catalytic subunits of proteasomes” value in data set [3] is reported as “did not affect”.
`O=NOO` [PNT, peroxynitrite]: the “recovery of H-2K^b peptide profile” value in data set [2] (2.5 mM PNT on ice 5 min, 16 h after the treatment) is on record as “returned to the pre-treatment level”. In addition, in data set [2] (2.5 mM PNT on ice 5 min, right after the treatment (0 min)), the “change in H-2K^b peptide profile” value is given as “no substantial changes”. Moreover, in the data set on EG.7 cells (2.5 mM PNT), the “NT (nitrotyrosine) expression” value is on record as “substantial up-regulation”, the cell viability result was “did not affect” and the “expression of MHCI H-2K^b molecules” value is recorded as “did not affect”. Besides, the “total H-2Kb expression, PNT-treated vs control cells” value in the data set with EL4 cells is “no differences”. In the data set on EL4 tumor cells, the “killing of tumor cells by CTLs generated against PNT-resistant peptides” value is recorded as “did not affect killing”. Moreover, on H-2K^b [4], the “effect of PNT pre-treatment of RMA-S cells on binding of the peptides” value is given as “only a small decrease”. Further, the “effect on proteasomal activity in IFN-γ pre-treated vs non-pre-treated cells” value in the data set on proteasome (EG7 and LLC cells, 100 ng/ml IFN-γ 24 hours, then PNT) is listed as “the same”. Besides, the “recovery of proteasomal activity over time” value with proteasome (EG.7 cells, 2.5 mM PNT, chymotrypsin, trypsin and caspase-like activities) is reported as “almost completely restored by 22 hours”. Also, the “proteasome types and activities affected” value in the data set on proteasome (EL4 and LLC cell lines, 2.5 mM PNT 5 min on ice, proteasome-specific fluorogenic substrates) was “affected mostly chymotrypsin- and trypsin-like activities associated with constitutive proteasomes”. For the same compound, the proteasomal activity entry in the data set with proteasome (tumor cells treated with 2.5 mM PNT for 5 min, n=3) is “profound decrease”. Moreover, the “change in HLA-A, -B, -C bound peptide profile” value in [5] is listed as “substantially changed the peptide profile”. In addition, the “effect of PNT treatment of RMA-S cells on dissociation rates” value at H-2K^b [6] is recorded as “no detectable effect”. The “amount of 6 catalytic subunits of proteasomes” value in data set [3] is on record as “did not affect”.
Take EGSRNQDWL: the “dissociation from H-2D^b” value on H-2D^b is recorded as “dissociated significantly faster”.

For the origin of these results see article PMC9566605 (Cancer cell, 2022).
